What was measured:
[1] = system: PBMCs from HLA-A*02+ healthy donors; assay: IFN-γ ELISPOT of CTLs induced in vitro; type: cell-based, human; conditions: PBMCs of six donors stimulated with peptide 10 μg/ml three times, day 21; stimulators peptide-pulsed T2 cells (50 μg/ml); 1 × 10^5 effectors; mean, n = 6
Description: (§1) CTL induction in vitro was conducted according to the procedures previously described. Briefly, PBMCs from eight HLA-A^∗02^+ healthy donors were isolated using Ficoll-Paque density gradient centrifugation and resuspended in RPMI 1640 medium supplemented with 10% FBS. Then, PBMCs were stimulated three times (once a week) with the indicated peptides (10 μg/ml) or protein MTA1(1–283) (at final concentrations of 0, 1, 10, 30, and 50 μg/ml) for 21 days. Human recombinant cytokine interleukin-2 (IL-2) (50 U/ml) was added on day 3 and 1 day after each stimulation. The cytotoxic assay (lactate dehydrogenase (LDH) assay) and IFN-γ secretion enzyme-linked immunospot (ELISPOT) assay were performed on day 21.
(§2) The ELISPOT assay was performed using a commercial kit (Dakewe, China) according to the procedures previously described. Briefly, T2 cells incubated with/without candidate peptide (50 μg/ml) were used as the stimulating cells, effector cells (1 × 10^5) and stimulator cells (peptide-pulsed T2 cells or T2 cells only, 1 × 10^5) were seeded into the 96-well plate precoated with an anti-human (or anti-mouse) IFN-γ antibody. After incubation at 37°C for 18 h, cells were removed, and plates were processed for analysis as instructed. The spot number was determined automatically using a computer-assisted spot analyzer (Dakewe, China).

HT-29 (HLA-A2−, MTA1+) = assay: LDH cytotoxicity assay, CTLs induced in vitro; type: cell-based, human; conditions: peptide-induced CTLs, HLA-A2-negative control target
Description: as §1
(§3) Cytotoxic activity of induced T cells was tested based on the quantitation of LDH release using the nonradioactive cytotoxicity assay kit (Promega, USA) at the gradient E/T ratio [29, 31]. Target cells which expressed different levels of MTA1 or peptide-pulsed T2 cells were used as target cells. The anti-human HLA-A2 antibody (BB7.2) was added 30 min before adding effector cells to determine the HLA restriction. Target cells (5 × 10^3/well) were cocultured with the effector cells at 37°C for 4 h. The percentage of specific lysis of the target cells was determined using the equation: percentage of specific lysis = [(experimental release − effector spontaneous release − target spontaneous release)/(target maximum release − target spontaneous release)] × 100.

MCF-7 (HLA-A2+, MTA1+) = assay: LDH cytotoxicity assay, CTLs induced in vitro; type: cell-based, human; conditions: peptide-induced CTLs from healthy donors, E/T 50 : 1
Description: as §1, §3

[2] = system: MDA-MB-231 (HLA-A2+, MTA1+); assay: LDH cytotoxicity assay, CTLs induced in vitro; type: cell-based, human; conditions: CTLs induced by peptide 10 μg/ml from donor no. 6; E/T 50 : 1; LDH release, 4 h; n = 3
Description: as §1, §3

SW620 (HLA-A2+, MTA1+) = assay: LDH cytotoxicity assay, CTLs induced in vitro; type: cell-based, human; conditions: CTLs induced by peptide 10 μg/ml from donor no. 6; E/T 50 : 1; LDH release, 4 h; n = 3
Description: as §1, §3

[3] = system: SW620 incubated with an anti-human HLA-A2 antibody; assay: LDH cytotoxicity assay, CTLs induced in vitro, HLA-A2 blocked; type: cell-based; conditions: peptide-induced CTLs, BB7.2 added 30 min before effectors
Description: as §1, §3

[4] = system: SW620 cells (HLA-A2+, MTA1+); assay: LDH cytotoxicity assay, CTLs induced in HLA-A2.1/Kb transgenic mice; type: in vivo, human; conditions: HLA-A2.1/Kb transgenic mice, 100 μg peptide + 140 μg T helper epitope in IFA s.c. days 0, 5, 10; splenocytes restimulated 6 days; E/T 50 : 1; n = 5
Description: (§4) In vivo induction of peptide-specific CTLs was performed as previously described. Briefly, peptide (100 μg) and the IA^b-restricted HBV-core128 T helper epitope (140 μg) emulsified in incomplete Freund's adjuvant (IFA) were used to subcutaneously immunize at the base of the tail of HLA-A2.1/K^b transgenic mice three times on days 0, 5, and 10. On day 11, all mice were sacrificed through cervical dislocation. Spleen lymphocytes were isolated and restimulated once with 10 μg/ml peptide and 10 U/ml mIL-2 in vitro for an additional 6 days. LDH and IFN-γ ELISPOT assays were performed on day 6 after in vitro stimulation. […]
To test the effects of protein, each HLA-A2.1/K^b transgenic mouse was injected subcutaneously at the base of the tail with 100 μg MTA1(1–283) or the same volume of PBS emulsified in IFA twice on days 0 and 7. On day 14, spleen lymphocytes were harvested and stimulated by peptide pool (10 μg/ml) in vitro for another 6 days. LDH, IFN-γ ELISPOT, and IFN-γ intracellular cytokine staining assays were performed on day 6 after the in vitro stimulation. E/T ratios used in the LDH assay were 12.5 : 1, 25 : 1, and 50 : 1.
as §3

[5] = system: T2 cells pulsed with each peptide; assay: as above; type: in vivo, human; conditions: 100 μg peptide + 140 μg T helper epitope in IFA s.c. days 0, 5, 10, splenocytes restimulated 6 days, E/T 50 : 1, n = 5
Description: as §4, §3

[6] = system: HLA-A2.1/K^b transgenic mice; assay: IFN-γ ELISPOT of CTLs induced in HLA-A2.1/Kb transgenic mice; type: in vivo; conditions: HLA-A2.1/Kb transgenic mice immunized with peptide; stimulators peptide-pulsed T2 cells
Description: In vivo induction of peptide-specific CTLs was performed as previously described. Briefly, peptide (100 μg) and the IA^b-restricted HBV-core128 T helper epitope (140 μg) emulsified in incomplete Freund's adjuvant (IFA) were used to subcutaneously immunize at the base of the tail of HLA-A2.1/K^b transgenic mice three times on days 0, 5, and 10. On day 11, all mice were sacrificed through cervical dislocation. Spleen lymphocytes were isolated and restimulated once with 10 μg/ml peptide and 10 U/ml mIL-2 in vitro for an additional 6 days. LDH and IFN-γ ELISPOT assays were performed on day 6 after in vitro stimulation. E/T ratios used in the LDH assay were 20 : 1, 40 : 1, and 80 : 1.
as §2

Row | Sequence | IFN-γ ELISPOT mean spot intensities [1] | lysis of HT-29 cells (HT-29 (HLA-A2−, MTA1+)) | rate of MCF-7 cell lysis (MCF-7 (HLA-A2+, MTA1+)) | lysis rate of MDA-MB-231 cells [2] | lysis rate of SW620 cells (SW620 (HLA-A2+, MTA1+)) | lysis of SW620 cells incubated with an HLA-A2 blocking antibody [3] | lysis rate of SW620 cells, CTLs induced in vivo [4] | lysis rate of peptide-pulsed T2 target cells, CTLs induced in vivo [5] | IFN-γ production, ELISPOT, CTLs induced in vivo [6]
1 | TLLNETESL [Peptide P129] | 411 | did not lyse | 9.34% | 14.1% | 38.4% | did not lyse | 51.81% | 31.6% | greater production of IFN-γ compared with the other peptides
2 | YLIRRIEEL [Peptide P22] | 566 | did not lyse | 16.0% | 24.8% | 71.4% | did not lyse | 37.29% | 22.43% | greater production of IFN-γ compared with the other peptides

Reference: publication PMC6286779, “HLA-A2-Restricted Epitopes Identified from MTA1 Could Elicit Antigen-Specific Cytotoxic T Lymphocyte Response” (Journal of Immunology Research, 2018)
